Data on 32 compounds can be found in patent US4621090A, “Antifungal compositions” (Toyo Soda Manufacturing Co., Ltd., priority 1983, dated 1986).

By MIC is commonly meant the lowest concentration that inhibits growth of the organism.

≈ marks a conversion by molar mass, not a printed value.

Assay [1] deals with Trichophyton mentagraphytes MTU-19024. Kind of assay: Minimum inhibitory concentration, anti-Trichophyton mentagraphytes activity test, strain MTU-19024. It is filed as cell-based. The following applies: 27° C., a week; for MIC: Trichophyton, MTU19024, Sabouraud's dextrose agar. The procedure: (§1) The activity was tested by the 10 time-step dilution test, using the Sabouraud's dextrose agar culture medium (2% dextrose, 1% pepton and 1.5% agar; pH 6.5±). A platinum loopful (about 10 μl) spore suspension (prepared from a reserved strain of Trichlophyton mentagraphytes and containing 1×10^6 cells/ml) was applied in the form of drawn lines on a plate of a culture medium containing the active ingredients. The culture medium plate was kept at 27° C. for a week and then visually observed to see if any colonies had formed. The minimum inhibitory concentration was defined as the minimum concentration with which formation of distinct colonies on the culture medium plate was not observed.

Assay [2] concerns Trichophyton mentagraphytes MTU-19031. Description: Minimum inhibitory concentration, anti-Trichophyton mentagraphytes activity test, strain MTU-19031. The conditions noted are these: 27° C., a week; for MIC: Trichophyton, MTU19031, Sabouraud's dextrose agar. It is filed as cell-based. The method, then: as §1

Turning to `Cc1cccc(N(C)C(=S)Oc2ccc3ccccc3c2)n1` [Compound No. 2, O-2-Naphthyl N-methyl-N-(6-methyl-2-pyridyl)thiocarbamate], the minimum inhibitory concentration (MIC) in assay [1] and in assay [2] was 0.5 µg/mL (≈ 1.62 µM) each time.

Regarding `Cc1cccc(N(C)C(=S)Oc2ccc3c(c2)CCCC3)n1` [compound 8, O--5,6,7,8-Tetrahydro-2-naphthyl N--methyl-N--(6-methyl-2-pyridyl)thiocarbamate], the MIC in assay [1] and in assay [2] was 0.5 µg/mL (≈ 1.6 µM) in each case.

For the compound `COc1cccc(N(C)C(=S)Oc2ccc3c(c2)C2CCC3C2)n1` (stereo not shown) [compound 12, O--1,4-Methano-1,2,3,4-tetrahydro-6-naphthyl N--(6-methoxy-2-pyridyl)-N--methylthiocarbamate], the minimum inhibitory concentration (MIC) in assay [1] and in assay [2] was 0.5 µg/mL (≈ 1.47 µM) in each case.

For `COc1cccc(N(C)C(=O)Oc2ccc3c(c2)C2CCC3C2)n1` (stereo not shown) [compound 13, 1,4-Methano-1,2,3,4-tetrahydro-6-naphthyl N--(6-methoxy-2-pyridyl)-N--methylcarbamate], the MIC in assay [1] and in assay [2] was 0.5 µg/mL (≈ 1.54 µM) throughout.

Turning to `Cc1cc(C)nc(N(C)C(=S)Oc2ccc3ccccc3c2)c1` [compound 14, O--2-Naphthyl N--methyl-N--(4,6,-dimethyl-2-pyridyl)thiocarbamate], the minimal inhibitory concentration (MIC) in assay [1] and in assay [2] was 0.5 µg/mL (≈ 1.55 µM) each time.

As to `Cc1cc(C)nc(N(C)C(=S)Oc2ccc3c(c2)CCC3)c1` [compound 15, O--5-Indanyl N--methyl-N--(4,6-dimethyl-2-pyridyl)thiocarbamate], the minimum inhibitory concentration (MIC) in assay [1] and in assay [2] was 0.5 µg/mL (≈ 1.6 µM) throughout.

Consider `COc1cccc(N(C)C(=S)Oc2ccc(C(C)(C)C)cc2)n1` [compound 16, O--4-t-Butylphenyl N--(6-methoxy-2-pyridyl)-N--methylthiocarbamate], for which the minimum inhibitory concentration (MIC) in assay [1] and in assay [2] was 0.5 µg/mL (≈ 1.51 µM) throughout.

Regarding `CCC(C)(C)c1ccc(OC(=S)N(C)c2cccc(OC)n2)cc1` [compound 19, O--4-t-Pentylphenyl N--(6-methoxy-2-pyridyl)-N--methylthiocarbamate], the MIC in assay [1] and in assay [2] was 0.5 µg/mL (≈ 1.45 µM) in each case.

Take `COc1cccc(N(C)C(=S)Oc2ccc3c(c2)C2CCC3CC2)n1` [compound 21, O--1,4-Ethano-1,2,3,4-tetrahydro-6-naphthyl N--(6-methoxy-2-pyridyl)-N--methylthiocarbamate]: the minimum inhibitory concentration (MIC) in assay [1] and in assay [2] was 0.5 µg/mL (≈ 1.41 µM) each time.

For `COc1cccc(N(C)C(=S)Oc2ccc(C)c(C)c2)n1` [compound 22, O--3,4-Dimethylphenyl N--(6-methoxy-2-pyridyl)-N--methylthiocarbamate], the MIC in assay [1] and in assay [2] was 0.5 µg/mL (≈ 1.65 µM) each time.

As to `Cc1ccc(N(C)C(=S)Oc2ccc3ccccc3c2)nc1C` [compound 25, O--2-Naphthyl N--methyl-N--(5,6-dimethyl-2-pyridyl)thiocarbamate], the minimum inhibitory concentration (MIC) in assay [1] and in assay [2] was 0.5 µg/mL (≈ 1.55 µM) in each case.

`Cc1ccc(N(C)C(=S)Oc2ccc3c(c2)CCC3)nc1C` [compound 26, O--5-Indanyl N--methyl-N--(5,6-dimethyl-2-pyridyl)thiocarbamate]: the MIC in assay [1] and in assay [2] was 0.5 µg/mL (≈ 1.6 µM) in each case.

With `Cc1ccc(N(C)C(=S)Oc2ccc3c(c2)CCCC3)nc1C` [compound 27, O--5,6,7,8-Tetrahydro-2-naphthyl N--methyl-N--(5,6-dimethyl-2-pyridyl)-thiocarbamate], the MIC in assay [1] and in assay [2] was 0.5 µg/mL (≈ 1.53 µM) in each case.

For the compound `COc1cccc(N(C)C(=S)Oc2ccc(C(C)C)cc2)n1` [compound 30, O--4-Isopropylphenyl N--(6-methoxy-2-pyridyl)-N--methylthiocarbamate], the MIC in assay [1] and in assay [2] was 0.5 µg/mL (≈ 1.58 µM) each time.

`CCc1ccc(OC(=S)N(C)c2cccc(OC)n2)cc1` [compound 33, O--4-Ethylphenyl N--(6-methoxy-2-pyridyl)-N--methylthiocarbamate]: the minimum inhibitory concentration (MIC) in assay [1] stood at 0.5 µg/mL (≈ 1.65 µM); in assay [2], 0.05 µg/mL (≈ 0.165 µM).

Turning to `COc1cccc(N(C)C(=S)Oc2ccc(Br)cc2)n1` [compound 34, O--4-Bromophenyl N--(6-methoxy-2-pyridyl)-N--methylthiocarbamate], the results for the MIC in assay [1] and in assay [2] were 0.5 µg/mL (≈ 1.42 µM) and 0.05 µg/mL (≈ 0.142 µM), respectively.

For the compound `CN(C)c1cccc(N(C)C(=S)Oc2ccc3ccccc3c2)n1` [compound 35, O--2-Naphthyl N--methyl-N--(6-dimethylamino-2-pyridyl)-thiocarbamate], the MIC in assay [1] and in assay [2] was 0.5 µg/mL (≈ 1.48 µM) in each case.

For `CN(C)c1cccc(N(C)C(=S)Oc2ccc(C(C)(C)C)cc2)n1` [compound 36, O--4-t-Butylphenyl N--methyl-N--(6-dimethylamino-:2-pyridyl)-thiocarbamate], the MIC in assay [1] and in assay [2] was 0.5 µg/mL (≈ 1.46 µM) each time.

In the case of `COc1cccc(N(C)C(=S)Oc2ccc(Cl)c(C)c2)n1` [compound 38, O--4-Chloro-3-methylphenyl N--(6-methoxy-2-pyridyl)-N--methylthiocarbamate], the MIC came to 0.5 µg/mL (≈ 1.55 µM) in assay [1] and 0.05 µg/mL (≈ 0.155 µM) in assay [2].

Take `CCc1ccc(OC(=S)N(C)c2cccc(OC)n2)cc1C` [compound 39, O--4-Ethyl-3-methylphenyl N--(6-methoxy-2-pyridyl)-N--methylthiocarbamate]: the MIC in assay [1] and in assay [2] was 0.5 µg/mL (≈ 1.58 µM) throughout.

As to `COc1cccc(N(C)C(=S)Oc2ccc(C(C)C)c(C)c2)n1` [compound 41, O--4-Isopropyl-3-methylphenyl N--(6-methoxy-2-pyridyl)-N--methylthiocarbamate], the MIC in assay [1] and in assay [2] was 0.5 µg/mL (≈ 1.51 µM) in each case.

`COc1cccc(N(C)C(=S)Oc2ccc(C(F)(F)F)cc2)n1` [compound 43, O-- 4-Trifluoromethylphenyl N--(6-methoxy-2-pyridyl)-N--methylthiocarbamate]: the results for the minimal inhibitory concentration (MIC) in assay [1] and in assay [2] were 0.5 µg/mL (≈ 1.46 µM) and 0.05 µg/mL (≈ 0.146 µM), respectively.

On to `COc1cccc(N(C)C(=S)Oc2ccc(Br)c(C)c2)n1` [compound 46, O--4-Bromo-3-methylphenyl N--(6-methoxy-2-pyridyl)-N--methylthiocarbamate], for which the MIC in assay [1] and in assay [2] was 0.5 µg/mL (≈ 1.36 µM) throughout.

`COc1cccc(N(C)C(=S)Oc2ccc(Cl)c(Cl)c2)n1` [compound 50, O--3,4-Dichlorophenyl N--(6-methoxy-2-pyridyl)-N--methylthiocarbamate]: the MIC in assay [1] and in assay [2] was 0.5 µg/mL (≈ 1.46 µM) each time.

In the case of `COc1cccc(N(C)C(=S)Oc2ccc(C)cc2)n1` [compound 53, O--4-Methylphenyl N--(6-methoxy-2-pyridyl)-N--methylthiocarbamate], the minimum inhibitory concentration (MIC) in assay [1] and in assay [2] was 0.5 µg/mL (≈ 1.73 µM) each time.

Consider `C=C(C)c1ccc(OC(=S)N(C)c2cccc(OC)n2)cc1` [compound 56, O--4-Isopropenylphenyl N--(6-methoxy-2-pyridyl)-N--methylthiocarbamate], for which the MIC in assay [1] and in assay [2] was 0.5 µg/mL (≈ 1.59 µM) throughout.

With `CNc1cccc(N(C)C(=S)Oc2ccc(C(C)(C)C)cc2)n1` [compound 58, O--4-t-Butylphenyl N--methyl-N--(6-methylamino-2-pyridyl)thiocarbamate], the MIC in assay [1] and in assay [2] was 0.5 µg/mL (≈ 1.52 µM) each time.

`COc1cccc(N(C)C(=S)Oc2ccc(SC)cc2)n1` [compound 62, O--4-Methylthiophenyl N--(6-methoxy-2-pyridyl)-N--methylthiocarbamate]: the MIC was 0.5 µg/mL (≈ 1.56 µM) in assay [1] and 0.05 µg/mL (≈ 0.156 µM) in assay [2].

As for `CCCc1ccc(OC(=S)N(C)c2cccc(OC)n2)cc1` [compound 65, O--4-Propylphenyl N--(6-methoxy-2-pyridyl)-N--methylthiocarbamate], the MIC in assay [1] and in assay [2] was 0.5 µg/mL (≈ 1.58 µM) throughout.

`COc1cccc(N(C)C(=S)Oc2ccc(SC)c(C)c2)n1` [compound 67, O--3-Methyl-4-methylthiophenyl N--(6-methoxy-2-pyridyl)-N--methylthiocarbamate]: the MIC in assay [1] and in assay [2] was 0.5 µg/mL (≈ 1.49 µM) each time.

On to `CN(C)c1cccc(N(C)C(=S)Oc2ccc(C(F)(F)F)cc2)n1` [compound 68, O--4-Trifluoromethylphenyl N--(6-dimethylamino-2-pyridyl)-N--methylthiocarbamate], for which the MIC in assay [1] and in assay [2] was 0.5 µg/mL (≈ 1.41 µM) in each case.

Regarding “O--Methyl-4-nitrophenyl N--(6-methoxy-2-pyridyl)-N--methylthiocarbamate [compound 66]”, the Minimum inhibitory concentration in assay [1] (Sabouraud's dextrose agar) and in assay [2] (Sabouraud's dextrose agar) was 0.5 µg/mL in each case.
